According to patent publication US20040253252A1, “Biological compositions and methods for treatment of leukemia” (priority 2003, published 2004):
Read-outs that look alike come from different tables or passages of the source.

How the values were obtained:
Format in all cases: in vivo, mouse
leukemia cell line L6565 [1] = details: SWI mice
Description: (§1) The biological composition comprising 10^8 cells per ml of activated and conditioned yeast cells of the strain Saccharomyces cerevisiae Hansen strain AS2.11 was prepared by the methods described in Section 5.1 and subsections therein.
(§2) The mice injected with tumor cells were immediately divided into 4 experimental groups of ten mice per group and one control group. The four experimental groups were triplicated (i.e., using a total of 120 mice in the experimental groups).
(§3) The mice in group CK2 also started receiving saline on the same day as the other four groups. […] The number of tumor cells in the mice were determined by standard techniques.

leukemia cell line T739 [2] = details: T739 mice
Description: as §1, §2, §3

leukemia cell line L6565 [3] = details: SWI mice; for Number of live animals remaining in the group: 30 mice per group
Description: The survival time of mice after tumor injection and treatment was studied.
as §1
The animals were prepared in a similar manner as described in Section 6.1.
(§4) The mice injected with tumor cells were kept for 5 days and then were divided into 4 experimental groups of ten mice per group and one control group. The four experimental groups were triplicated (i.e., using a total of 120 mice in the experimental groups). In group 2AY, the mice received 0.3 ml of the biological composition once per day. In group 2NY, the mice received 0.3 ml of the untreated yeast cells once per day. […] In group 2CK1, the mice received 0.3 ml of physiological saline once per day.
(§5) The mice in group CK2 also started receiving saline on the same day as the other four groups. […] The mice were observed over 6 months from the day of tumor inoculation and survival was recorded. The number of tumor cells in the mice were determined by standard techniques.

leukemia cell line T739 [4] = details: T739 mice; for Number of live animals remaining in the group: 30 mice per group
Description: The survival time of the […] after tumor injection and treatment was studied.
as §1
The animals were prepared in a similar manner as described in Section 8.1.
as §4, with “immediately” for “kept for 5 days and then were”
as §5

[5] = 1 month after cessation of treatment
[6] = 2 months after cessation of treatment
[7] = 3 months after cessation of treatment
[8] = 4 months after cessation of treatment
[9] = 5 months after cessation of treatment
[10] = 6 months after cessation of treatment

O=P1(N(CCCl)CCCl)NCCCO1 (centres unmarked) [CTX, cyclophosphamide]
development of leukemia (leukemia cell line L6565 [1]; L6565, 21 days of treatment): developed leukemia
number of leukemia cells and standard deviation (leukemia cell line L6565 [1]; L6565 cells s.c., 21 consecutive days of treatment, sacrificed on 22nd day (or measured at time of death)): 933 ± 241 cells/ml
number of leukemia cells and standard deviation (leukemia cell line T739 [2]; T739 cells s.c., 21 consecutive days of treatment, sacrificed on 22nd day (or measured at time of death)): 957 ± 132 cells/ml
development of leukemia (leukemia cell line T739 [2]; 21 days of treatment): developed leukemia
Number of live animals remaining in the group (leukemia cell line L6565 [3]; 0 month after cessation of 21 days of treatment): 28
Number of live animals remaining in the group (leukemia cell line L6565 [3]; [5]): 19
Number of live animals remaining in the group (leukemia cell line L6565 [3]; [6]): 3
Number of live animals remaining in the group (leukemia cell line L6565 [3]; [7]): 0
Number of live animals remaining in the group (leukemia cell line L6565 [3]; [8]): 0
Number of live animals remaining in the group (leukemia cell line L6565 [3]; [9]): 0
Number of live animals remaining in the group (leukemia cell line L6565 [3]; [10]): 0
survival outcome during the experiment (leukemia cell line L6565 [3]; observed over 6 months): died during the experiment
Number of live animals remaining in the group (leukemia cell line T739 [4]; 0 month after cessation of treatment): 28
Number of live animals remaining in the group (leukemia cell line T739 [4]; [5]): 19
Number of live animals remaining in the group (leukemia cell line T739 [4]; [6]): 3
Number of live animals remaining in the group (leukemia cell line T739 [4]; [7]): 0
Number of live animals remaining in the group (leukemia cell line T739 [4]; [8]): 0
Number of live animals remaining in the group (leukemia cell line T739 [4]; [9]): 0
Number of live animals remaining in the group (leukemia cell line T739 [4]; [10]): 0
survival outcome during the experiment (leukemia cell line T739 [4]; observed over 6 months): died during the experiment
